“Also recorded” adds a separate entry of the source. Read-outs that look alike come from different tables or passages of the source. Blank lines part the entries; values can stand above or below the molecule they belong to.
What was measured:
[1] = test system: HER2 and HER4 activation in BT-474 cells; test: HER2 and HER4 activation assessed by phosphorylation of downstream targets (FIG. 16); format: cell-based; conditions: BT-474, ibrutinib compared to AVL-292
[2] = test system: EGFR, HER2, HER4 and downstream targets (MEK, Akt signaling pathway); test: Signaling pathway inhibition (FIGS. 19-21); format: cell-based; conditions: for inhibition of MEK and Akt signaling pathway compared with EGFR and HER2 signaling pathway: FIG. 21
BTK = target: T1, BTK (Homo sapiens, UniProt Q06187); test: Covalent binding to Btk, DoHH2 cells with PCI-33380 (FIG. 24); conditions: inhibitors 1 h, then PCI-33380 2 uM 30 min
T1 construct: endogenous in cells; host or cells: DoHH2
T1 sequence (Q06187 whole entry): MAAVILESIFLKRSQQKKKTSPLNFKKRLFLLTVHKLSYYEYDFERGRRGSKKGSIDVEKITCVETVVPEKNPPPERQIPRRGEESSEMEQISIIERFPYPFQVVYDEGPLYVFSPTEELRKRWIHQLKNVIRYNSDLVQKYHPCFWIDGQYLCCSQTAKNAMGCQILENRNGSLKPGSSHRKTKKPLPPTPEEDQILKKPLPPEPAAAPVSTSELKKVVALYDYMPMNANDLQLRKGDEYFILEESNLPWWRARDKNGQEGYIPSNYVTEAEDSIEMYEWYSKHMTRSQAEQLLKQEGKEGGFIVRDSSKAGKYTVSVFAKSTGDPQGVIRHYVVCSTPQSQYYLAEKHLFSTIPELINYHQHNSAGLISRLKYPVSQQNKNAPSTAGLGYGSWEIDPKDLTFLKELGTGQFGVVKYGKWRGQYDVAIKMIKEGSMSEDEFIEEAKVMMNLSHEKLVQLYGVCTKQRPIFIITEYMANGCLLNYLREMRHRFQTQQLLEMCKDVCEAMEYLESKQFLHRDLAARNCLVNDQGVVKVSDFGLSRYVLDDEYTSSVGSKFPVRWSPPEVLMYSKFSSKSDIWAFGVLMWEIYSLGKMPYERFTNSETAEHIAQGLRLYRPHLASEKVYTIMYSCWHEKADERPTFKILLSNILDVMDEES

Erb4 = Erb4 (Homo sapiens, UniProt Q15303); test: Kinase activity assay (LabChip platform, Nanosyn)
Erb4, sequence (Q15303 26-1292 isoform Q15303-3 limits assumed): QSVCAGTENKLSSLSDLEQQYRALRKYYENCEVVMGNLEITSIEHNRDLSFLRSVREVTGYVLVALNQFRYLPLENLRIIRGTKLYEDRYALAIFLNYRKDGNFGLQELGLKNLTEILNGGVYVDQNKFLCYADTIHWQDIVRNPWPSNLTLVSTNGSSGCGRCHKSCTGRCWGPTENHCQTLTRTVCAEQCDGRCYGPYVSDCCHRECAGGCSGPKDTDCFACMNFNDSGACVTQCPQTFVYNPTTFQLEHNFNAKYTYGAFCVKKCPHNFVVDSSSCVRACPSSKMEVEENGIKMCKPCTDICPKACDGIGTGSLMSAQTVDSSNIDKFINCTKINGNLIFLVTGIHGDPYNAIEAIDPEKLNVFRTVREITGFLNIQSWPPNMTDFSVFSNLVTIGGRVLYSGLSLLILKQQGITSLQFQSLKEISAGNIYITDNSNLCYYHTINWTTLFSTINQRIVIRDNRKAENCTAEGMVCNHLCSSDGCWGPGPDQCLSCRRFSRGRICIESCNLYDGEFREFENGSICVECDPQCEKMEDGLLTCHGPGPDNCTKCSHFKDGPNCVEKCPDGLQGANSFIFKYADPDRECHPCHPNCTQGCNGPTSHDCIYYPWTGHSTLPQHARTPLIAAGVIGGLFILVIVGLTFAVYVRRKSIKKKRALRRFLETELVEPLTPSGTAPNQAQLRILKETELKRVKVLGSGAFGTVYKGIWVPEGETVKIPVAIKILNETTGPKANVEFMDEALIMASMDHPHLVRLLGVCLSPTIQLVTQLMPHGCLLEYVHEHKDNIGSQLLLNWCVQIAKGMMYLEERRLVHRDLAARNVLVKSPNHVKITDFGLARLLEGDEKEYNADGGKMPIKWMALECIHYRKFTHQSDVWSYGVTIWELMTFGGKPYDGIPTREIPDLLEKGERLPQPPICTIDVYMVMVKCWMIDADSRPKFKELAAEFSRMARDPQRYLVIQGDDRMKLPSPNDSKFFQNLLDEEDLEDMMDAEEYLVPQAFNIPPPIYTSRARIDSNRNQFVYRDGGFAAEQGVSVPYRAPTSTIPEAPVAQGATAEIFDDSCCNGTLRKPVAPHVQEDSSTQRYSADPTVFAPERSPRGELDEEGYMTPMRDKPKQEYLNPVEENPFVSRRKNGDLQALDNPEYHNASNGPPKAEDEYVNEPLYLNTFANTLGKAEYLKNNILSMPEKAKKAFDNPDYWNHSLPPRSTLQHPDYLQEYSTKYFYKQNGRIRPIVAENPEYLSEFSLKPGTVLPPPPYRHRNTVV

LCK = LCK (Homo sapiens, UniProt P06239); test: LCK dialysis assay; format: biochemical; conditions: 10 nM or 100 nM, 1 h pre-incubation, 24 h dialysis
LCK, sequence (P06239 whole entry, species assumed): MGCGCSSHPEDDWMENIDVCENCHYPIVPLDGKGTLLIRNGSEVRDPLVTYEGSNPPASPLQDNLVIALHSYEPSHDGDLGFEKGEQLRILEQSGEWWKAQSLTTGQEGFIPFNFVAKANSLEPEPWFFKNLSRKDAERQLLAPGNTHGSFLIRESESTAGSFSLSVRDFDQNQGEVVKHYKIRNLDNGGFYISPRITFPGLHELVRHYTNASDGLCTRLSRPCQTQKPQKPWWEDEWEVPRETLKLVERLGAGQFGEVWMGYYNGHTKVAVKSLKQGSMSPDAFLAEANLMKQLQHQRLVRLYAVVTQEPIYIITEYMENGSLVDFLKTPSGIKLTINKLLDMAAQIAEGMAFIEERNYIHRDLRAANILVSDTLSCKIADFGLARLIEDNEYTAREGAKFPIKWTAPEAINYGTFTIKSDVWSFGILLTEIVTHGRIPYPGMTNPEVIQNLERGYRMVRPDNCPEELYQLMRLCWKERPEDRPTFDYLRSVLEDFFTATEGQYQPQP
Description: Control samples included: DMSO+5 nM LCK dialyzed in the identical manner. […] Initial velocity was determined in the samples.

EGFR (ErbB1) = EGFR (ErbB1) (Homo sapiens, UniProt P00533); test: Kinase activity assay (LabChip platform, Nanosyn); conditions: recombinant enzyme 5 nM, substrate 1 μM
EGFR (ErbB1), sequence (P00533 25-1210): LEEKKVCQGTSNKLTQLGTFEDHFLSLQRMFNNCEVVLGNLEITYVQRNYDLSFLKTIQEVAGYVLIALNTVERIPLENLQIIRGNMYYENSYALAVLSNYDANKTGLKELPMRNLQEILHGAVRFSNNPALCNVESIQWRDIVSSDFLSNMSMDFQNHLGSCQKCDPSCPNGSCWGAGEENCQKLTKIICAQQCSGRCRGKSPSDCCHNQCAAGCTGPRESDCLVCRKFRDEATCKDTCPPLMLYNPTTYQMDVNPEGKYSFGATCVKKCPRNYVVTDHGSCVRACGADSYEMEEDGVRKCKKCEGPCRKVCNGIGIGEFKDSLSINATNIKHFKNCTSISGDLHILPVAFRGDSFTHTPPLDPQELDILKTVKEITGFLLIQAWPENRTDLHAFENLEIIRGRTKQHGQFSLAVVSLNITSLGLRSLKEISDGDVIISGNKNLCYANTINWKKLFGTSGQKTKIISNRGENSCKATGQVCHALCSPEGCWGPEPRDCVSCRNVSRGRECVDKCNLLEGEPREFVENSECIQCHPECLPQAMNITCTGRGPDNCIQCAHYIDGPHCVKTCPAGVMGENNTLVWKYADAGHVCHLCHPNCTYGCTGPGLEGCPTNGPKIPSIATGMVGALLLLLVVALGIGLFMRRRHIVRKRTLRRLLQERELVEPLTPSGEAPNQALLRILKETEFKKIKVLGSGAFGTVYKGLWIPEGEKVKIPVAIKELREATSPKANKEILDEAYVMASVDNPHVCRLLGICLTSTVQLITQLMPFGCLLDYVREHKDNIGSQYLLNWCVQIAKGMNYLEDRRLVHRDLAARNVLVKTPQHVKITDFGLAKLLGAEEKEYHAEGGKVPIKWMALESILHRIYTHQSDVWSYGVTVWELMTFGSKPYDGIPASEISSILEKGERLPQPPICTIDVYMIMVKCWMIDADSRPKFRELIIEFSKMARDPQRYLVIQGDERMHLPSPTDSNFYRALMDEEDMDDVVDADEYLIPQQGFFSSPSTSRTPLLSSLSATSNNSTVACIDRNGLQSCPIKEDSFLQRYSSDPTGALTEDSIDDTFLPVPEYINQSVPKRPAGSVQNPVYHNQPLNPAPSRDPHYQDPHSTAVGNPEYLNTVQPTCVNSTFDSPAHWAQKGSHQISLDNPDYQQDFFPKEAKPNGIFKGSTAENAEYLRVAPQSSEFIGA

HER signaling pathway = test: One hour treatment followed by washout, signaling pathways (FIG. 33); format: cell-based
MDA-MB-453 xenograft = test: Mouse MDA-MB-453 xenograft; format: in vivo
BT-474 cells [3] = test: Cell proliferation assay with alamar blue; conditions: BT-474, 3 days continuous exposure
[4] = test system: ErbB kinases and down-stream signaling pathways; test: Washout experiment, immunoblotting of total and phosphorylated proteins (FIG. 10); format: cell-based; conditions: BT474 and SKBR-3, 0.1 or 0.5 μM, various times, then cultured additional 2 hours
Description: Cells were washed once with cold PBS and lysed in 1× sample buffer (Invitrogen). The whole cell lysate was boiled, sonicated, and then loaded onto a 4-15% gradient SDS-PAGE gel. The proteins were transferred to PVDF membrane. After probing with antibodies, the detection was conducted using an Odyssey […] (Li-Cor). Paired mouse and rabbit antibodies were used to probe the total and corresponding phosphorylated proteins.

ITK = ITK (Homo sapiens, UniProt Q08881); test: Kinase activity assay (LabChip platform, Nanosyn); format: biochemical; conditions: recombinant enzyme 5 nM, substrate 1 μM
TXK = TXK (Homo sapiens, UniProt P42681); test: Kinase activity assay (LabChip platform, Nanosyn); format: biochemical; conditions: recombinant enzyme 5 nM, substrate 1 μM
TEC = TEC (Homo sapiens, UniProt P42680); test: Kinase activity assay (LabChip platform, Nanosyn); format: biochemical; conditions: recombinant enzyme 5 nM, substrate 1 μM
SK-BR3 cells [5] = test: Cell proliferation assay with alamar blue; conditions: SK-BR3, 3 days continuous exposure
[6] = test system: aldehyde dehydrogenase (ALDH) in BT-474 cells; test: Aldefluor assay
BLK = BLK (Homo sapiens, UniProt P51451); test: Kinase activity assay (LabChip platform, Nanosyn); format: biochemical; conditions: recombinant enzyme 5 nM, substrate 1 μM
EGFR = EGFR (Homo sapiens, UniProt P00533); test: EGFR dialysis assay; format: biochemical; conditions: 10 nM or 100 nM, 1 h pre-incubation, 24 h dialysis
EGFR, sequence (P00533 25-1210): as above
Description: Control samples included: DMSO+5 nM EGFR dialyzed in the identical manner. […] Initial velocity was determined in the samples.

MDA-MB-453 cells [7] = test: Resistance induced by heregulin; format: cell-based; conditions: MDA-MB-453, higher concentration of ibrutinib
JAK3 = JAK3 (Homo sapiens, UniProt P52333); test: Kinase activity assay (LabChip platform, Nanosyn); format: biochemical; conditions: recombinant enzyme 5 nM, substrate 1 μM
BT-474 cells [8] = test: Cell cycle analysis; format: cell-based; conditions: BT-474, 1 h exposure, measured at 24 h
HER4 = HER4 (Homo sapiens, UniProt Q15303); test: HER4 dialysis assay; format: biochemical; conditions: 10 nM or 100 nM, 1 h pre-incubation, 24 h dialysis
HER4, sequence (Q15303 26-1292 isoform Q15303-3 limits assumed): as the sequence (Q15303 26-1292 isoform Q15303-3 limits assumed) above

BT-474 cells [9] = test: Tumorsphere culture; format: cell-based; conditions: BT-474, 1 hour treatment, wash out, seven days culture
UACC-893 cells = test: Cell proliferation assay with alamar blue; format: cell-based; conditions: UACC-893, 3 days continuous exposure
BT-474 cells [10] = test: Resistance induced by heregulin; format: cell-based; conditions: BT-474, higher concentration of ibrutinib
[11] = test system: Btk signaling pathways in Mino cells; test: Signaling pathways in B cells (FIG. 23); format: cell-based
SK-BR3 cells [12] = test: Cell growth inhibition wash out assay; format: cell-based; conditions: SK-BR3, 1 hour exposure (0.1, 0.25, 0.5 μM), 6 days culture
BT-474 cells [13] = test: Cell growth inhibition wash out assay; format: cell-based; conditions: BT-474, 1 hour exposure (0.1, 0.25, 0.5 μM), 6 days culture
MDA-MB-453 cells [14] = test: Cell proliferation assay with alamar blue
ErB2 = ErB2 (Homo sapiens, UniProt P04626); test: Kinase activity assay (LabChip platform, Nanosyn); conditions: recombinant enzyme 5 nM, substrate 1 μM
SK-BR3 cells [15] = test: Cell cycle analysis; format: cell-based; conditions: SK-BR3, 1 h exposure, measured at 24 h
ErbB kinases = test: Separate dialysis experiment on kinase inhibition (data not shown); format: biochemical
BT-474 cells [16] = test: Apoptosis assay (annexin-V / sub G0); format: cell-based

SMILES: C=CC(=O)Nc1cccc(Nc2nc(Nc3ccc(OCCOC)cc3)ncc2F)c1 [AVL-292, reference compound]
inhibition of HER2 and HER4 activation (phosphorylation of downstream targets, such as AKT) [1]: only ibrutinib inhibited

covalent binding to Btk (BTK): did not
SMILES: COc1cc2ncnc(Nc3ccc(F)c(Cl)c3)c2cc1NC(=O)/C=C/CN1CCCCC1 [dacomitinib, reference compound]
inhibition of EGFR and downstream targets ([2]; FIG. 20): less effective

HER4 inhibitory activity compared to ibrutinib (Erb4; stated without source): lower HER2/4 inhibitory activity
SMILES: COc1cc2ncnc(Nc3ccc(F)c(Cl)c3)c2cc1OCCCN1CCOCC1 [gefitinib, reference compound]

reversibility of LCK inhibition after dialysis (LCK): reversible inhibition
reversibility of LCK inhibition after dialysis (LCK; listed as Ibrutinib): reversibly inhibits
IC50 toward EGFR compared with HER2 and HER4 ([2]; FIG. 19B): higher IC50
inhibition of ITK (ITK): able to inhibit
inhibition of TXK (TXK): able to inhibit
inhibition of TEC (TEC): able to inhibit
inhibition of BLK (BLK): able to inhibit
reversibility of EGFR inhibition after dialysis (EGFR): irreversible inhibition
reversibility of EGFR inhibition after dialysis (EGFR; listed as Ibrutinib): irreversibly inhibits
inhibition of JAK3 (JAK3): able to inhibit
reversibility of HER4 inhibition after dialysis (HER4): irreversible inhibition
reversibility of HER4 inhibition after dialysis (HER4; listed as Ibrutinib): irreversibly inhibits
kinase inhibition after dialysis (ErbB kinases): dialysis resistant
SMILES: C=CC(=O)N1CCC[C@@H](n2nc(-c3ccc(Oc4ccccc4)cc3)c3c(N)ncnc32)C1 [ibrutinib, (R)-1-(3-(4-amino-3-(4-phenoxyphenyl)-1H-pyrazolo[3,4-d]pyrimidin-1-yl)piperidin-1-yl)prop-2-en-1-one]
inhibition of EGFR (ErbB1) (EGFR (ErbB1)): able to inhibit; also recorded: effective in inhibiting
inhibitory effect on HER signaling pathway after washout (HER signaling pathway; day 6): lasting inhibitory effect even after day 6
inhibitory effect on HER signaling pathway after washout (HER signaling pathway; day 6, listed as Ibrutinib): long-lasting inhibitory effect even after day 6
solid tumor growth (tumor volume) (MDA-MB-453 xenograft): inhibited solid tumor growth
growth inhibitory effect (BT-474 cells [3]): sensitive to the growth inhibitory effect; also recorded: confirmed ibrutinib inhibitory activity
inhibition of MEK and Akt signaling pathway compared with EGFR and HER2 signaling pathway [2]: more potent inhibitor of MEK and Akt pathways than the EGFR and HER2 pathways
inhibition of MEK and Akt signaling pathway compared with EGFR and HER2 signaling pathway ([2]; listed as Ibrutinib): potent inhibitor of the MEK and Akt signaling pathway than of the EGFR and HER2 signaling pathway
inhibition of ErbB kinases and down-stream signaling pathways after washout [4]: persisted after ibrutinib washout, and was time and concentration dependent
growth inhibitory effect (SK-BR3 cells [5]): sensitive to the growth inhibitory effect; also recorded: confirmed ibrutinib inhibitory activity
putative stem-like subpopulation of breast cancer cells ([6]; BT-474, one hour or continuous treatment): decreased
aldehyde dehydrogenase activity ([6]; BT-474, short exposures to high concentrations or continuous exposure to low concentration): decreased aldehyde dehydrogenase activity
overcoming resistance induced by heregulin (MDA-MB-453 cells [7]): able to overcome resistance induced by heregulin
cell cycle effect (BT-474 cells [8]): G1 arrest
inhibition of HER2 and HER4 activation (phosphorylation of downstream targets, such as AKT) [1]: only ibrutinib inhibited HER2 and HER4 activation
tumorsphere growth (size) (BT-474 cells [9]): inhibited tumorsphere growth
tumorsphere number (BT-474 cells [9]): without affecting tumorsphere number
growth inhibitory effect (UACC-893 cells): sensitive to the growth inhibitory effect
overcoming resistance induced by heregulin (BT-474 cells [10]): able to overcome resistance induced by heregulin
inhibitory effect on Btk signaling pathways in B cells [11]: selective inhibitory effect
inhibitory effect on Btk signaling pathways in B cells ([11]; listed as Ibrutinib): selectively inhibits
growth inhibitory effect after wash out (SK-BR3 cells [12]): sustained and was dose dependent
growth inhibitory effect after wash out (BT-474 cells [13]): sustained and was dose dependent
inhibition of Erb4 (Erb4; recombinant enzyme 5 nM, substrate 1 μM): able to inhibit; also recorded: effective in inhibiting
growth inhibitory effect (MDA-MB-453 cells [14]; MDA-MB-453, 3 days continuous exposure): sensitive to the growth inhibitory effect; also recorded: confirmed ibrutinib inhibitory activity
inhibition of cell growth compared to gefitinib (MDA-MB-453 cells [14]; MDA-MB-453, fluorescence-based assay): more potent than gefitinib
inhibition of ErB2 (ErB2): able to inhibit; also recorded: effective in inhibiting
cell cycle effect (SK-BR3 cells [15]): G1 arrest
apoptosis (annexin-V positivity or sub G0) (BT-474 cells [16]; BT-474, continuous treatment 3-day, with or without caspase inhibitor Q-VD-OPH): dramatic apoptosis which was caspase-dependent
apoptosis (cells in sub G0) (BT-474 cells [16]; BT-474, one hour treatment, 6 days after the exposure): low level of apoptosis

covalent binding to Btk (BTK): did not
SMILES: CS(=O)(=O)CCNCc1ccc(-c2ccc3ncnc(Nc4ccc(OCc5cccc(F)c5)c(Cl)c4)c3c2)o1 [lapatinib]

SMILES: CCOc1cc2ncc(C#N)c(Nc3ccc(OCc4ccccn4)c(Cl)c3)c2cc1NC(=O)/C=C/CN(C)C [neratinib]
covalent binding to Btk (BTK): did not

From US10016434B2, “Methods for the treatment of HER2 amplified cancer” (Pharmacyclics LLC, priority 2013, dated 2018)
